In patent EP1209147A1, “CARBOXYLIC ACID DERIVATIVES AND ADHESION MOLECULE INHIBITORS CONTAINING THE SAME AS THE ACTIVE INGREDIENT” (TORAY INDUSTRIES, INC., priority 1999, dated 2001):

Key:
[1] = molecular target: VLA-4-IgG chimeric protein (Homo sapiens, UniProt P05556+P13612); test: Inhibition of binding between CS-1 peptide and VLA-4-IgG chimeric protein; details: binding of VLA-4-IgG chimeric protein to immobilized CS-1 peptide; compound preincubated 20 minutes; read-out: Inhibition Activity(IC50 : nM)
Procedure: The adhesion-inhibition activity of the compound of the present invention against VLA-4 may be examined by using an adhesion assay system in which the adhesion between VLA-4-expressing cells such as Ramos cells and Jurkat cells, and fibronectin or a fragment thereof, e.g., a peptide containing CS-1 sequence (Gly Pro Glu Ile Leu Asp Val Pro Ser Thr) (hereinafter referred to as "CS-1 peptide") immobilized on an immunoplate is measured. Alternatively, a binding assay system in which the binding of the VLA-4 protein to the fibronectin or a fragment thereof such as CS-1 peptide immobilized on an immunoplate is measured may be employed. In the present invention, the inhibition assay of the compound is preferably measured by a binding assay system which measures the binding between a chimeric protein of VLA-4 and immunoglobulin (VLA-4-IgG chimeric protein) and CS-1 peptide (Japanese patent application No. H9-234544), although the method of measuring the inhibition activity is not restricted to this method. The term "VLA-4-IgG chimeric protein" herein means the heterodimer composite molecule in which a chimeric protein between α4 of VLA-4 and immunoglobulin (hereinafter referred to as "VLAα4·IgG chimeric protein), and a chimeric protein between β1 of VLA-4 and immunoglobulin (hereinafter referred to as "VLAβ1·IgG chimeric protein) are associated. As the immunoglobulin, although heavy chain or light chain of IgG, IgM or the like may be employed, in the present invention, IgG1 heavy chain is used. When testing the inhibition activity of the compound, it is preferred to preliminarily mix the VLA-4-IgG chimeric protein and the test compound.
Effects of Compounds for Inhibition of Binding Between CS-1 Peptide and VLA-4-IgG
A conjugate between a peptide (Gys Leu His Gly Pro Glu Ile Leu Asp Val Pro Ser Thr) containing CS-1 sequence and rabbit IgG (Sigma) was prepared by the reported method (Humphries, M.J. et al. J. Biol.Chem., 262, 6886-6892 (1987)). The obtained conjugate was diluted with phosphate buffer (hereinafter referred to as "PBS(-)", NISSUI) and the resulting solution was placed in wells of a 96-well immunoplate (NUNC) in an amount of 100 µl/well, followed by leaving the solution to stand at 4°C for 16 hours to immobilize the conjugate.
Then each well was washed twice with PBS(-), and a PBS solution containing 1% BSA heat-treated at 80°C for 10 minutes was placed in each well in an amount of 300 µl/well. The immunoplate was left to stand at 4°C for 3 hours, and then the solution in each well was removed by aspiration.
After preliminarily allowing each compound to react with VLA-4-IgG chimeric protein (100 µl) at room temperature for 20 minutes, the resulting solution was allowed to react with CS-1 peptide in each well at 30°C for 3 hours. Thereafter, non-bound VLA-4-IgG chimeric protein was removed by aspiration and each well was washed twice with 0.1% BSA-containing TBS buffer (150 mM NaCl,25 mM Tris-HCI, 1 mM MnCl2 pH 7.4). To the bound VLA-4-IgG chimeric protein, biotin-labeled anti-human IgG antibody (Vector) as an primary antibody was added, and then avidin-labeled horse radish peroxidase (Sigma) as a secondary antibody was added, and the reaction was allowed to occur. After the reaction, o-phenylenediamine as a substrate was added to color the solution, and the absorbance at 490 nm was measured. From the absorbance, the binding-inhibition activity of each test compound was determined.

[2] = tested on: Mouse Peritonitis Induced by Ragweed Pollen; test: Mouse peritonitis induced by ragweed pollen; assay type: in vivo, BLAB/c mouse; details: 400 mg/kg intravenously, totally 5 times; 48 hours after induction
Procedure: Ragweed pollen extract 1:100 (TORII PHARMACEUTICAL) was diluted by 10-fold with physiological saline, and the resulting solution was used as an antigen for sensitization. This antigen solution was subcutaneously administered to each BLAB/c mouse (female, 6 weeks old, JAPAN CHARLES RIVER) in an amount of 100 µl each on DAY-0 and DAY-1, and 200 µl each on DAY-6, DAY-8 and DAY-14 to obtain sensitized mice, DAY-0 being the day of the initial sensitization. On DAY-20, 200 µl of the antigen solution was intraperitoneally administered to induce peritonitis. After 48 hours from the induction, each mouse was sacrificed by bleeding to death, and 3 ml of heparin-containing PBS(-) was intraperitoneally injected. Celiotomy was performed and washing solution of the abdominal cavity was recovered. The leukocytes contained in the recovered washing solution were subjected to site spin and a smear specimen was prepared. After staining the specimen by May-Giemsa staining method, the leukocytes were grouped and counted under microscope to determine the number of eosinophils. Compound No. 140 used as the test compound was dissolved in physiological saline and the solution was intravenously administered totally 5 times, i.e., at 16 hours before induction, at the time of induction, at 8 hours, 24 hours and 32 hours after induction, at a dose of 400 mg/kg per each time. […]

[3] = tested on: Mouse Asthma Model; test: Mouse asthma model (OVA, intranasal induction); assay type: in vivo, BLAB/c mouse; details: 750 µg per time intranasally; BALF on DAY-28; Fig. 2
Procedure: Equivolume of 10% KAI(SO4)2·12H2O (WAKO) solution and ovalbumin (hereinafter "OVA") solution (500 µg/ml) were mixed, and 10N NaOH was slowly added to neutralize the solution to obtain Al(OH)3 gel (OVA 500 µg/ml) on which OVA was adsorbed. The obtained product was intraperitoneally administered to each BLAB/c mouse (female, 7 weeks old, JAPAN CHARLES RIVER) at a dose of 200 µl (100 µg) per mouse on DAY-0 and DAY-14. Thereafter, on DAY-14, 50 µl of 2 mg/ml solution of OVA in physiological saline was intranasally administered, and on DAY-25, 26 and 27, 50 µl of 1 mg/ml solution of OVA in physiologically saline was intranasally administered to induce inflammation. Compound No. 140 used as the test compound was dissolved in physiological saline and the solution was intranasally administered at 30 minutes before induction with OVA, at 8 hours after induction, and on DAY-25, 26 and 27, twice a day, at a dose of 750 µg per time. To the background group and control group, physiological saline was intranasally administered.
On DAY-28, bronchus of each mouse was incised and the bronchus and alveoli were washed (BAL) 4 times with 0.7 ml of physiological saline. […] After staining the specimen by May-Giemsa staining method, the leukocytes were grouped and counted under microscope to determine the number of eosinophils. […]

Sequence of VLA-4-IgG chimeric protein (P13612 with tags, fused parts or gaps limits assumed): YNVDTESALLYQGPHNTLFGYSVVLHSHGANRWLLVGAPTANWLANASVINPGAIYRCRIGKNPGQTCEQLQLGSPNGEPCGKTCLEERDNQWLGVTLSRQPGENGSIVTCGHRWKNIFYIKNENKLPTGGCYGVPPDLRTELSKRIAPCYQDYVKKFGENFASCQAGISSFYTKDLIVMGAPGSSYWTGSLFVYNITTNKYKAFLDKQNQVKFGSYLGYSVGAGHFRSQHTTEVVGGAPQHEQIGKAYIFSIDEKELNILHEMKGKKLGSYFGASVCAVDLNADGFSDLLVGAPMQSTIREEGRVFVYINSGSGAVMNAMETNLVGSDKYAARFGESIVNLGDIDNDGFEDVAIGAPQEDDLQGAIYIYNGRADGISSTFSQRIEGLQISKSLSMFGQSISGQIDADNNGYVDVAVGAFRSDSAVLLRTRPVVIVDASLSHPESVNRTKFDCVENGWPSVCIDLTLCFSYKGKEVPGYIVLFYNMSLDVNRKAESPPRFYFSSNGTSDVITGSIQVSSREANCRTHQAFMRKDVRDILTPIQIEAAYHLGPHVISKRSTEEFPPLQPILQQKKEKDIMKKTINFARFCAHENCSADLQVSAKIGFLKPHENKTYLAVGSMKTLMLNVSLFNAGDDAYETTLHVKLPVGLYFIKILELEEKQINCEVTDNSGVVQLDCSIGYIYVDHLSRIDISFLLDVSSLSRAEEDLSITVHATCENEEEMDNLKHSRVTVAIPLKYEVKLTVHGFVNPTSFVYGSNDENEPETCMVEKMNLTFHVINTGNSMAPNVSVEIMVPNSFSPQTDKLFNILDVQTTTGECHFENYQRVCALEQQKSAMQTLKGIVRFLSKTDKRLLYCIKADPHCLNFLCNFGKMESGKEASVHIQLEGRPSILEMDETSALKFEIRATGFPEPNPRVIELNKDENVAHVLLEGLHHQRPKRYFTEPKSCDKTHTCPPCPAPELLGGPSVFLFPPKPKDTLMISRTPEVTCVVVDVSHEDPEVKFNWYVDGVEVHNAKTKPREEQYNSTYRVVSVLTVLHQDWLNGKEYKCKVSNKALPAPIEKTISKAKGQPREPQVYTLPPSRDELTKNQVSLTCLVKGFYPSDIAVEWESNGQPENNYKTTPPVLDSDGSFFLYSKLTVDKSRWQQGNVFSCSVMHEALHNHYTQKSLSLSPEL
Sequence of VLA-4-IgG chimeric protein (P05556 with tags, fused parts or gaps limits assumed): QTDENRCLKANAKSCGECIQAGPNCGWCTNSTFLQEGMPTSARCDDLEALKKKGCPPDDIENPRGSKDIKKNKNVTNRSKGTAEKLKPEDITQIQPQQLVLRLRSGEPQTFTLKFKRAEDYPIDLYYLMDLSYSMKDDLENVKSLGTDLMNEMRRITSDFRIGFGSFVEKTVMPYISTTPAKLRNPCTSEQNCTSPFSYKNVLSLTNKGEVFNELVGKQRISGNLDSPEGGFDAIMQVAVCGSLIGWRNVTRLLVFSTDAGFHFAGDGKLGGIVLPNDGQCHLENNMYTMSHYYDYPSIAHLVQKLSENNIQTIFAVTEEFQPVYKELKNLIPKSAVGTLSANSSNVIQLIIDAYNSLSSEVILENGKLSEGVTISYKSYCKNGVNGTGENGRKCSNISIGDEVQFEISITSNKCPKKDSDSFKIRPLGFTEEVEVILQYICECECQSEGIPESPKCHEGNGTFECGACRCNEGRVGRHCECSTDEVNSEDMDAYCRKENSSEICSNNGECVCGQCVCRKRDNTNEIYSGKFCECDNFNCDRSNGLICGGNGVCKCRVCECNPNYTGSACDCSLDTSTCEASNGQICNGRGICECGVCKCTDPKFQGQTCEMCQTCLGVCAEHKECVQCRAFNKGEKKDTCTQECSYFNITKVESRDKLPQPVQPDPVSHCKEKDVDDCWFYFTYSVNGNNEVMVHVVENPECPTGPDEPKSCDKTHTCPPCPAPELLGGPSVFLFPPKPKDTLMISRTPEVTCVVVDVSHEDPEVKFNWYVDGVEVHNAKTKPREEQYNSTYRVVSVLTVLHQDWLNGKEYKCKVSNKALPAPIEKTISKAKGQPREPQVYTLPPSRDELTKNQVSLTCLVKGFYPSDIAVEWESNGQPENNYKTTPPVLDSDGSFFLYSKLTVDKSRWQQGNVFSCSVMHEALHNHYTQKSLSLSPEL

With CC(C)(C)CC(=O)N[C@@H](CSSC[C@H](NC(=O)CC(C)(C)C)C(=O)O)C(=O)O [Example 140, 3-((2(R)-carboxy-2(R)-(3,3-dimethylbutanoylamino)ethyl)disulfanyl)-2(R)-(3,3-dimethylbutanoylamino)propionic acid] the IC50 [1] was 1800 nM, the “inhibition rate of accumulation of leukocytes, especially eosinophils, to abdominal cavity” value [2] was 31.1% and the “accumulation of leukocytes, especially eosinophils, in the lung” value [3] was “inhibits”.
